Read-outs that look alike come from different tables or passages of the source.
Columns and labels:
[1] = system: CLL cells; assay: Cytotoxicity of NOS inhibitors and NO quenchers/scavengers for freshly-isolated CLL cells in vitro; type: cell-based, human; conditions: for ED50 for CLL: Table 2, CLL cytotoxicity; for ED50 for CLL (mean ± SEM): CLL cytotoxicity, freshly-isolated patient cells in vitro; for EC50: read-out: EC50 (average concentration of compound that induced 50% CLL cell death), CLL cell death in vitro, ± SEM
[2] = target: pure human enzyme NOS3 (Homo sapiens, UniProt P29474); assay: Kd for enzyme inhibition, pure human NOS3; type: biochemical
Sequence of pure human enzyme NOS3 (P29474 whole entry): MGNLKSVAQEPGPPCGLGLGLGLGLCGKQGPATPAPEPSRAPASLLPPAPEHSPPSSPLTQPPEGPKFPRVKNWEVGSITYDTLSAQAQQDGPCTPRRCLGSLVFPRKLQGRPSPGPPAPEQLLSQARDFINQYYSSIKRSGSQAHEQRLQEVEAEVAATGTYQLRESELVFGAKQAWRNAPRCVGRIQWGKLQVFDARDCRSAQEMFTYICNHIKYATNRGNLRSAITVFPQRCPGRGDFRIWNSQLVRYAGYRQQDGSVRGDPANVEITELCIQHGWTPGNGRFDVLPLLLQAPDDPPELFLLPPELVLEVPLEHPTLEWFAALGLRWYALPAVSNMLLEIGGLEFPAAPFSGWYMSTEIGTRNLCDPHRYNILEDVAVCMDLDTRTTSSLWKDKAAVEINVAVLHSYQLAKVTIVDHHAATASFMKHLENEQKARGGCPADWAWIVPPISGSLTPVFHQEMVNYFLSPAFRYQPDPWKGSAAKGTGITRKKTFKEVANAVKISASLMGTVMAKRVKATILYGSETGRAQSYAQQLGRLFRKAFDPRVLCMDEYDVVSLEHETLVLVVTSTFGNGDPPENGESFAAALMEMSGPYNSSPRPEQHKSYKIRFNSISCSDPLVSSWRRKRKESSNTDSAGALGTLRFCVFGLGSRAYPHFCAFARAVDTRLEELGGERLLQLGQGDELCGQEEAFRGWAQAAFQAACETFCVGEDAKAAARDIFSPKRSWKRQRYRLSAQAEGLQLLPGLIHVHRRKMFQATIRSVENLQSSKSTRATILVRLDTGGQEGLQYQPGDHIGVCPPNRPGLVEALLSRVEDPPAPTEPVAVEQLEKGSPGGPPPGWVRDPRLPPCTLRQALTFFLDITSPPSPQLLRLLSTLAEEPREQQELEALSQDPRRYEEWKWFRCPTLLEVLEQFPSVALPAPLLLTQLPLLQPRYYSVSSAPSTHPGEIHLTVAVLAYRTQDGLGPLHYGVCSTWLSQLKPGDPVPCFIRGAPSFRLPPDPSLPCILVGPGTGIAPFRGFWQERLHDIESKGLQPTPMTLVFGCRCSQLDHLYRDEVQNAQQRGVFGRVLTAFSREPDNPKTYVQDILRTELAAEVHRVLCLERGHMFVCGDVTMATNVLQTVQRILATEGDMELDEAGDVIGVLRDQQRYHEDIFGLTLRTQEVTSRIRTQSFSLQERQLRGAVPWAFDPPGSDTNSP

[3] = system: freshly-isolated CLL cells; assay: Apoptosis and death of freshly-isolated CLL cells after exogenous NO donors and drugs; type: cell-based, human; conditions: for ID50, CLL cell apoptosis and death: acute addition
From the text: We next wanted to examine CLL cells. These malignant cells differ in many ways from ANLL and normal hematopoietic. In addition to their different lineage, they are unique in that they have a very low growth […], exist primary in the G0 phase of the cell cycle, and have defective apoptosis. […] NO also synergized with the ara-guanosine prodrug 2-amino-9-[…]-D-6-methoxy araguanine (also called 506U78).

[4] = system: HL-60 and U937 cells; assay: Growth inhibition of acute nonlymphocytic leukemia cell lines by NO donors; type: cell-based, human
From the text: To more closely examine the mechanism of toxicity for myeloid leukemia cells, we did work to determine whether the rate of NO delivery affected its growth inhibition of acute nonlymphocytic leukemia cells. We also wanted to determine whether the NO inhibition of cell growth is associated induction of apoptosis. We treated HL-60 and U937 cells with three compounds that generate the same amount of NO but different rates. […] Furthermore, NO-induced growth inhibition was associated with apoptosis in a rate and concentration-dependent fashion (Reference 39).

[5] = cited from earlier work
[6] = normals and trials for septic shock and migraine; cited from earlier work
[7] = system: HL-60 myeloblastic leukemia cells; assay: Growth of HL-60 myeloblastic leukemia cells under NO-delivering drugs; type: cell-based, human; conditions: NO delivered from the drug
From the text: While studying NO and macrophages progressed in the late 1980s, we hypothesized that NO produced in the BM would be a modulator of normal and leukemic hematopoiesis. […] The differentiated cells were vacuolated, and had increased expression of nonspecific esterase, CD11 b, and CD14.

[8] = system: normal human BM cells; assay: Colony formation of normal human bone marrow cells / CD34+ cells in methylcellulose; type: cell-based; conditions: normal human BM cells in methylcellulose with erythropoietin and colony stimulating factors
Description: The effects of NO on the growth and differentiation of normal human BM cells were analyzed (Reference 85). We felt that normal hematopoietic cells, like malignant hematopoietic cells, would be affected by NO. […] In retrospect, we think that the increase in CFU-GM by NO from SNP may be due to alterations in apoptosis secondary to changes in bcl-2 or caspases. None of the noted inhibitions were related to cGMP.

[9] = target: recombinant purified human NOS1 (Homo sapiens, UniProt P29475); assay: Kd for enzyme inhibition, pure human NOS1; type: biochemical
Sequence of recombinant purified human NOS1 (P29475 whole entry): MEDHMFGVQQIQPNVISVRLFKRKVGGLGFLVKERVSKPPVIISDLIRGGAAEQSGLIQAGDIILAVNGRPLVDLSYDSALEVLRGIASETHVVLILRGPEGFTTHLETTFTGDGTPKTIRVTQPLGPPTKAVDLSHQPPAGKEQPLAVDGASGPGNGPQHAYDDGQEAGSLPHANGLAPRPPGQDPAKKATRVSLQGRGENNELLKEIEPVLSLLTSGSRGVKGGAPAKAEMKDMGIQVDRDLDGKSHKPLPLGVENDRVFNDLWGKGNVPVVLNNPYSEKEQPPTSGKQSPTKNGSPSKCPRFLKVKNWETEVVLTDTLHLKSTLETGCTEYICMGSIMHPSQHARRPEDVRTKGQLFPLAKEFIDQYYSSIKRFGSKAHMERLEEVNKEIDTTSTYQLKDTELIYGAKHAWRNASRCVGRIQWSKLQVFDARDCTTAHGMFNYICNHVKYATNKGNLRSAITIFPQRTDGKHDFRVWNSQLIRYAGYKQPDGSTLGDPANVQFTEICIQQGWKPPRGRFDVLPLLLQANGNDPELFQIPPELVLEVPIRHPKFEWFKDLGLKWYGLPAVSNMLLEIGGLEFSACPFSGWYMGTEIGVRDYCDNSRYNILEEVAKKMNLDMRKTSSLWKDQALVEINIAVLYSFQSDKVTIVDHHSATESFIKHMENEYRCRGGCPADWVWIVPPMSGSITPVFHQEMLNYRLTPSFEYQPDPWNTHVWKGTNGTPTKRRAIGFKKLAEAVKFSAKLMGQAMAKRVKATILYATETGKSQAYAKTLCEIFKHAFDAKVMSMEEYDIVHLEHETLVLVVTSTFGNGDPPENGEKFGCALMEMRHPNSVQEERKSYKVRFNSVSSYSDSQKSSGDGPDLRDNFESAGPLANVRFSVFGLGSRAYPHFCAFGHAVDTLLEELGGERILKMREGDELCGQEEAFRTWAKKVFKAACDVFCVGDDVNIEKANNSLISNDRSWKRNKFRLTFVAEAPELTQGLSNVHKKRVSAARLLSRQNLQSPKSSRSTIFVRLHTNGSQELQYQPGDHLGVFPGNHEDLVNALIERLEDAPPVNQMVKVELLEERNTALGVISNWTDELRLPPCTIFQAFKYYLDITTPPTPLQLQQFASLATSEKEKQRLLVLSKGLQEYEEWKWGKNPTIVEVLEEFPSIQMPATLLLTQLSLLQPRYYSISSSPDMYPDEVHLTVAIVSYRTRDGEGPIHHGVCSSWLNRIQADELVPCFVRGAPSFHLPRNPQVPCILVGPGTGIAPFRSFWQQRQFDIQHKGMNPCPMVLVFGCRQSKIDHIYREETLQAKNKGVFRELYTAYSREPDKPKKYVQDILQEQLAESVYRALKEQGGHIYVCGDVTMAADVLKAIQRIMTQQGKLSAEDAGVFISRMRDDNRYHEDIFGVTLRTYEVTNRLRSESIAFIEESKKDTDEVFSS

Which “ED50 for CLL” value [1] does the source give for `Cc1ccnc(N)c1` [2-amino-4-methyl pyridine] here?
The value was >2000 µM.

What does the source list for `O=[N+]([O-])c1cccc2cn[nH]c12` [7-NI, 7-Nitroindazole]?
ED50 for CLL (mean ± SEM) [1]: 131 ± 23 µM; EC50 ([1]; Homo sapiens): 131 ± 23 µM

For `Cl.Cl.N=C(Nc1ccc(CCNCc2cccc(Cl)c2)cc1)c1cccs1` [ARL-17477, N-[4-(2-{[(3-chlorophenyl)methyl]amino}ethyl)phenyl]-2-thiophenecarboximide dihydrochloride], which “ED50 for CLL (mean ± SEM)” value [1] is on record?
Its value is 11 ± 2 µM.

And the “ED50 for CLL” value [1]?
Its value is 11 µM.

What about the EC50 [1] of the same molecule?
Its EC50 is 11 ± 2 µM.

What about the Kd [2] of the same molecule?
The Kd was 1 µM.

Which results are given for `CC1(C)N([O])C(c2ccc(C(=O)O)cc2)=[N+]([O-])C1(C)C` [Carboxy-PTIO, 2-(4-Carboxyphenyl)-4,4,5,5-tetramethylimidazoline-1-oxyl-3-oxide]?
ED50 for CLL (mean ± SEM) [1]: 227 ± 31 µM; EC50 [1]: 227 ± 31 µM

Which “Interaction with fludarabine in killing CLL cells” value ([3]; combination with fludarabine) does the source give for `NCCN(CCN)/[N+]([O-])=N/O` [DETA-NO] here?
The value was “acted synergistically”.

And the “ID50, CLL cell apoptosis and death” value ([3]; freshly-isolated CLL cells)?
Its value is 188 µM.

And the “Interaction with other agents in killing CLL cells” value ([3]; with 5-fluorouracil, gemcitabine, doxorubicin, chlorambucil or SN-38)?
Its value is “did not enhance the activity”.

What about the “Inhibition of leukemia cell and colony growth (rank)” value [4] of the same molecule?
The value was “most potent inhibitor”.

What about the “half-life of NO delivery” value [5] of the same molecule?
Its value is 1200 min.

With `NCCNCCN` [DETA] as the molecule, how does the “Effect on CLL cells (control for NO dependence)” value ([3]; freshly-isolated CLL cells) read?
Its value is “had no effects”.

Which “ED50 for CLL (mean ± SEM)” value [1] does the source give for `C/C1=C2/[N-][C@H]([C@H](CC(N)=O)[C@@]2(C)CCC(=O)NC[C@@H](C)OP(=O)([O-])O[C@H]2[C@@H](O)[C@@H](n3cnc4cc(C)c(C)cc43)O[C@@H]2CO)[C@]2(C)N=C(/C(C)=C3N=C(/C=C4N=C1[C@@H](CCC(N)=O)C\4(C)C)[C@@H](CCC(N)=O)[C@]\3(C)CC(N)=O)[C@@H](CCC(N)=O)[C@]2(C)CC(N)=O.[Co+3].[OH-]` [Hydroxocobalamin] here?
Its value is 148 ± 46 µM.

What about the EC50 [1] of the same molecule?
Its EC50 is 148 ± 46 µM.

Which “ED50 for CLL” value [1] does the source give for `CNC(=N)NCCC[C@H](N)C(=O)O` [L-N^G-monomethylarginine] here?
Its value is >2000 µM.

And the “Effects on cardiovascular, liver, or hematopoietic function” value [6]?
Its value is “no major effects”.

Which “ED50 for CLL” value [1] does the source give for `NC(=N[N+](=O)[O-])NCCCC(N)C(=O)O` [L-N^G-nitroarginine] here?
Its value is >2000 µM.

With `CNCCCCCCN(C)/[N+]([O-])=N/O` [MAMA-NO] as the molecule, how does the “ID50, CLL cell apoptosis and death” value ([3]; freshly-isolated CLL cells) read?
Its value is 1658 µM.

And the “half-life of NO delivery” value [5]?
Its value is 2 min.

With `CCCN(CCCN)/[N+]([O-])=N/O` [PAPA-NO] as the molecule, how does the “ID50, CLL cell apoptosis and death” value ([3]; freshly-isolated CLL cells) read?
The value was 850 µM.

What about the “half-life of NO delivery” value [5] of the same molecule?
Its value is 30 min.

Which “Growth of HL-60 cells” value [7] does the source give for `[NH-]c1c[n+](N2CCOCC2)no1` [SIN-1] here?
Its value is “potently inhibited”.

And the “Development of marrow colonies” value [8]?
Its value is “inhibited”.

Which results are given for `FC(F)(F)c1ccccc1-n1ccnc1` [TRIM, 1-(2-Trifluoromethylphenyl)imidazole]?
ED50 for CLL (mean ± SEM) [1]: 445 ± 46 µM; EC50 ([1]; Homo sapiens): 445 ± 46 µM

Which “ED50 for CLL (mean ± SEM)” value [1] does the source give for `C=CCC(=N)NCCC[C@H](N)C(=O)O` [Vinyl-L-NIO, N^5-(1-imino-3-butenyl)-L-ornithine] here?
Its value is 747 ± 126 µM.

And the EC50 ([1]; Homo sapiens)?
The EC50 was 747 ± 126 µM.

And the “ED50 for CLL” value [1]?
Its value is 747 µM.

And the Kd [9]?
Its Kd is 0.1 µM.

With `Nc1nc(F)nc2c1ncn2[C@@H]1O[C@H](CO)[C@@H](O)[C@@H]1O` [fludarabine] as the molecule, how does the “ID50, CLL cell apoptosis and death” value ([3]; freshly-isolated CLL cells) read?
Its value is 2 µM.

For S-nitrosoacetylpenicillamine [SNAP], which “Growth of HL-60 cells” value [7] is on record?
Its value is “potently inhibited”.

What about the “Development of marrow colonies” value [8] of the same molecule?
Its value is “inhibited”.
